Read-outs that look alike come from different tables or passages of the source.
What was measured:
DCD gene [1] = assay: DCD gene expression by qPCR in SK-MEL-147; format: cell-based, Human; conditions: SK-MEL-147, 24 h
Experimental: (§1) […] (2.5 × 10^5) cells in 1 mL of media were seeded in cell culture dishes and, 24 h later, treated with SQ1 (0.3 µM and 0.6 µM for SK-MEL-28 and 0.9 µM and 1.8 µM for SK-MEL-147) or SQ2 (0.05 µM and 0.1 µM for SK-MEL-28 and 0.6 µM and 1.2 µM for SK-MEL-147) for 24 h. Doxorubicin (DOX; 1.4 µM for SK-MEL-28 and 0.8 µM for SK-MEL-147) was used as positive control and 0.5% DMSO as negative control.
(§2) Treated cells (Section 4.6) had their total RNA extracted and purified using TRIzol reagent (Thermo Fisher Scientific, San Jose, CA, USA), in accordance with the manufacturer’s recommendations. For analysis of DCD expression, purified total RNA was quantified using an Eon Microplate Spectrophotometer (BioTek Instruments, Winooski, VT, USA). Quantitative PCR (qPCR) was conducted on a Rotor Gene 6000 real-time cycler (Corbett Life Science, Sydney, NSW, Australia) using GoTaq 1-Step RT-qPCR System (Promega, Madison, WI, EUA). The cycle conditions were as follows: 45 °C for 10 min, 95 °C for 15 min and 40 cycles of 95 °C for 15 s; 60 °C for 60 s, followed by the melt. Relative expression was calculated using the comparative CT method Delta-Delta-Ct (DDCt). The primer sequences and concentrations utilized (DCD and RPLPO) can be consulted in Table S3.

[2] = design: method as in PMID 30783501; conditions: organic and aqueous media, cited from earlier work
MRC-5 = assay: MTT cytotoxicity assay; conditions: MRC-5 non-tumor fibroblasts, 72 h treatment, MTT
DCD gene [3] = assay: DCD gene expression by qPCR in SK-MEL-28; format: cell-based, Human; conditions: SK-MEL-28, 24 h
Experimental: as §1, §2

SK-MEL-147 [4] = assay: Clonogenic assay; format: cell-based, Human; conditions: for decrease of cell proliferation expressed by colony area: SK-MEL-147, 24 h treatment, 6 days in drug-free medium
Experimental: as §1
After the cells were submitted to the treatment scheme (Section 4.6), adherent cells were collected, plated at 1 × 10^3 cell/plate on 35-mm plates and maintained in culture for 6 days in treatment-free medium. The medium was replaced every 2 days. Cells were then fixed and stained with a solution of 20% MeOH (Synth, Diadema, São Paulo, Brazil) and 0.5 g crystal violet (Sigma-Aldrich, St. Louis, MO, USA). Images were acquired using G:BOX Chemi XRQ (Syngene, Cambridge, UK) and quantified using the ImageJ program (ColonyArea; US National Institutes of Health, Bethesda, MD, USA).

SK-MEL-147 [5] = assay: Trypan blue exclusion test (cell viability); format: cell-based, Human; conditions: for number of viable cells: SK-MEL-147, 24-h treatment, 1.0, 2.5 or 5.0 µM
Experimental: (§3) Fifty thousand (5 × 10^4) cells in 1 mL of media were seeded in cell culture dishes and, 24 h later, treated with SQ1 or SQ2 (1.0, 2.5, and 5.0 µM), vehicle (DMSO) and doxorubicin (DOX, positive control) for 24 h. Cells were detached, stained with Trypan Blue solution 0.4% (1:10, v/v; Sigma-Aldrich, St. Louis, MO, USA) and counted in a Neubauer chamber under optical microscopy to determine concentrations of viable and non-viable cells.

SK-MEL-28 [6] = assay: Trypan blue exclusion test (cell viability); format: cell-based, Human; conditions: SK-MEL-28, 24-h treatment, 1.0, 2.5 or 5.0 µM
Experimental: as §3

SK-MEL-147 [7] = assay: Western blotting of apoptosis and autophagy markers; format: cell-based, Human; conditions: SK-MEL-147, 24 h
Experimental: as §1
(§4) Treated cells (Section 4.6) had their proteins extracted with the following solution: 10 mM ethylenediaminetetraacetic acid (EDTA), 10% triton, 2 mM phenylmethanesulfonyl fluoride (PMSF), 10 mM Tris base, 10 mM sodium pyrophosphate, 100 mM sodium fluoride, 2.5 mM sodium orthovanadate, and deionized water. The resulting extract was quantified for protein concentration and 30 µg of protein were subjected to SDS-PAGE and to Western blot analysis with the indicated antibodies: cleaved PARP-1 (#5625), PARP1 (#9542), cleaved caspase-3 (#9604), caspase-3 (#9662), SQSTM1/p62 (#5114), LC3B (#2775), and α-tubulin (#2144) from Cell Signaling Technology (Danvers, MA, USA). Images of membranes were made using Pierce ECL Western Blotting Substrate (Thermo Fisher Scientific, San Jose, CA, USA) and G:BOX Chemi XRQ (Syngene, Cambridge, UK). Band intensities were quantified using UN-SCAN-IT gel 6.1 software (Silk Scientific; Orem, UT, USA).

SK-MEL-28 [8] = assay: as above; format: cell-based, Human; conditions: SK-MEL-28, 24 h
Experimental: as §1, §4

| SMILES | DCD expression relative to control (DCD gene [1]; 1.8 µM) | solubility [2] | solubility ([2]; listed as seriniquinone) | IC50 (MRC-5; Homo sapiens, MRC5, 72 h) | IC50 (MRC-5) | DCD expression increase relative to control (DCD gene [3]; 0.3 µM) | DCD expression increase relative to control (DCD gene [3]; 0.6 µM) | reduction of the colony levels (SK-MEL-147 [4]; SK-MEL-147, 24 h treatment at half IC50 and IC50, 6 days in drug-free medium) | decrease of cell proliferation expressed by colony area (SK-MEL-147 [4]) | number of viable cells (SK-MEL-147 [5]) | number of viable cells (SK-MEL-28 [6]) | apoptotic markers (cleaved PARP-1, cleaved caspase-3) (SK-MEL-147 [7]) | apoptotic markers (cleaved PARP-1, cleaved caspase-3) (SK-MEL-28 [8]) | autophagic flux (p62) (SK-MEL-28 [8]) | DCD overexpression relative to control (DCD gene [1]; 1.2 µM) | DCD expression up-regulation relative to control (DCD gene [3]; 0.1 µM) | proportion of non-viable cells (SK-MEL-147 [5]; SK-MEL-147, 24 h, 2.5 and 5.0 µM) |
| --- | --- | --- | --- | --- | --- | --- | --- | --- | --- | --- | --- | --- | --- | --- | --- | --- | --- |
| O=c1c2ccccc2c(=O)c2c1sc1c(=O)c3ccccc3c(=O)c12 [SQ1, seriniquinone] | twofold | lack of solubility | poor water-solubility | 640 nM | 600 nM | twofold | 20 times | greater than 50% | 50% | significantly reducing the number of viable cells | significantly reducing the number of viable cells | increase of typical apoptotic markers | increase of typical apoptotic markers | extinction of p62 |  |  |  |
| CC(C)(O)C(O)CCc1ccc2c(=O)c3sc4c(=O)c5ccccc5c(=O)c4c3c(=O)c2c1 (stereo not drawn) [SQ2] |  | improved solubility |  | 1570 nM |  |  |  |  | 50% | significantly reducing the number of viable cells | significantly reducing the number of viable cells | increase of typical apoptotic markers | increase of typical apoptotic markers |  | eight | three | significantly higher |

From publication PMC8658889, “Seriniquinones as Therapeutic Leads for Treatment of BRAF and NRAS Mutant Melanomas” (Molecules, 2021)
